Data from US10906904B2, “ADO-resistant cysteamine analogs and uses thereof” (HORIZON ORPHAN LLC, priority 2015, dated 2021).
Where two headings read alike, the source gives them in different places.

Legend:
[1] = Cystine reactivity assay; settings: Table 4
[2] = test system: cystinotic human fibroblasts; experiment: Cystine depletion assay; format: cell-based; settings: for Emax: Homo sapiens, Fibroblast, 1 h
Experimental: The ability of test compounds to deplete cystine from cystinotic human fibroblasts (Coriell) was determined by incubating compounds with cells for 60 min at 37° C., 95% (v/v) air/5% (v/v) CO2 in Minimal Essential Media Eagle. Treated cell samples were subsequently harvested, then homogenized to ensure plasma and lysosomal membrane disruption. Protein was removed by acid precipitation and cystine in the supernatant measured using LC-MS/MS and HILIC chromatography. Protein levels were determined and cystine levels reported as nM per mg/ml protein. Cystine levels after test compound treatment were expressed as a percentage of that of untreated control cells.
Compounds were assayed at a concentration of 50 μM or 100 μM according to the general methods described above.
Cystine depletion levels for the compounds are expressed in Table 4 as a percent relative to the cystine depletion achieved by cysteamine (c.f. cysteamine 100%) at a similar concentration.
Cystine depletion levels for each of the compounds in Table 5 are expressed as a percent relative to the cystine depletion achieved by cysteamine (c.f. cysteamine 100%) at a similar concentration.

[3] = biological target: T1, human recombinant ADO (Homo sapiens, UniProt Q96SZ5); format: in vitro ADME
T1 sequence (Q96SZ5 1-270): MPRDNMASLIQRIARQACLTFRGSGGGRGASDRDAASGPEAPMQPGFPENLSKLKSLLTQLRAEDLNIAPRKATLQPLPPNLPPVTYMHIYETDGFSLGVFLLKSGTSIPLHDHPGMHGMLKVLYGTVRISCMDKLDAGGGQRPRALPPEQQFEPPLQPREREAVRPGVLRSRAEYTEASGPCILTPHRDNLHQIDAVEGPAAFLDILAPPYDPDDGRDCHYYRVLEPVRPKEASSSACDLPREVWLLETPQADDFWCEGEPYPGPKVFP
Experimental: The rate of ADO metabolism was determined by incubating 15 mM test compound with 60 μg/ml human recombinant ADO and 20 nM MitoXpress® O2-sensitive fluorescent probe (Luxcel) at 37° C. in assay buffer/salt in a sealed assay chamber. The initial rate of fluorescence (excitation λ380 nm and emission λ650 nm) increase was used to measure ADO-dependent oxygen depletion activity. The ability of ADO to metabolize compounds and concomitantly consume oxygen was expressed relative to that of 15 mM cysteamine.

[4] = Cystine reactivity assay; parameters: Cystine Reactivity: unit not given here; settings: for Cystine Reactivity Assay (30° C.) (%) Mean Value: percentage of 3 mM cysteamine
Experimental: Cystine reactivity was assessed by incubating 3 mM test compound with 100 nM BODIPY® FL L-Cystine (Life Tech.) at 30° C., pH 7.4 in phosphate buffer. […] Compound cystine reactivity was expressed as a percentage of that of 3 mM cysteamine.
Under resting conditions, the inherent fluorescence of BODIPY® FL L-cystine was very low due to the spatial proximity of the two BODIPY molecules causing quenching. Under chemical reaction (disruption of the S—S bond), the spatial distance was increased, the quenching lost, and measured fluorescence increased. Time (minutes) vs. fluorescence (relative fluorescence units—RFU) was plotted and linear regression analysis was performed to generate a slope value corresponding to the reaction rate in RFU/min and an R2 value.

[5] = Dimethyl sulfide (DMS) detection in rat whole blood following oral compound administration; format: in vivo
Experimental: Male Sprague Dawley (SD) rats (200-250 g) were housed in cages under a 12 hour light/dark cycle with free access to food and water. Temperature and humidity were controlled according to UK Home Office regulations. For oral (po) administration, test compounds were formulated in water at a concentration of 30 mg/mL, to provide a dose of 150 mg/kg when administered orally in a 5 mL/kg dosing volume. Following compound or water (vehicle) administration to rats (n=15 per compound), terminal blood samples (>5 mL) were taken by cardiac puncture under CO2 at defined time-points post oral dosing (pre-dose, 0.25 hour, 0.5 hour, 1 hour and 2 hour). Blood was placed in sealed heparinized Eppendorf tubes on wet ice and stored at 4° C. prior to analyzing DMS levels by gas chromatography (GC).
For each sample of rat blood, 1 mL was added to an evacuated 20 mL GC-Headspace vial containing tetrahydrofuran (THF) internal standard. Headspace vials were sealed with a crimp cap and septum (to prevent the vaporization of volatile sulfur compounds into the open air) and thoroughly vortex mixed. All samples were processed using gas chromatography to measure DMS levels. In short, sulfur containing compounds were thermally liberated into the gas carrier stream and injected (1 μL) into the gas chromatography column (30 m×0.32 mm DB-624 1.8 μm). Under these conditions, the retention time for dimethyl sulfide (DMS) and THF internal standard were approximately 1.83 minutes and 3.82 minutes respectively.
For each analyzed blood sample, the ratio of DMS peak area to THF peak area was calculated. For the DMS calibration curve and assay linearity checks, this ratio was graphically plotted against the concentration of reference DMS standards (blank, 60 nM, 180 nM, 360 nM, 600 nM, 1200 nM, 1800 nM and 3000 nM). The concentration of DMS in each blood sample was calculated from the equation produced by this plot by linear regression analysis. […].

[6] = test system: St-HdhQ^111/111 cells; experiment: Glutamate-induced neuronal excitotoxicity assay; format: cell-based; settings: for viability at 10 µM / viability at 100 µM: STHdhQ111; for viability at 10 µM / viability at 100 µM / HdhQ^111/111 cell % survival (mean ± STD) Test Conc. 10 μM / HdhQ^111/111 cell % survival (mean ± STD) Test Conc. 100 μM: 6 mM L-glutamate 24 hours, % of effect of 100 μM cysteamine; for viability at 10 µM: read-out: HdhQ^111/111 cell % survival (mean ± STD) Test Conc. 10 μM; for viability at 100 µM: read-out: HdhQ^111/111 cell % survival (mean ± STD) Test Conc. 100 μM
Experimental: The ability of test compounds to inhibit glutamate-induced excitotoxicity (neuroprotection) in St-HdhQ^111/111 cells was determined by incubating compounds with cells for 60 min at 33° C., 95% (v:v) air/5% (v:v) CO2 in Dulbecco's Modified Eagle Media. Following this, excitotoxicity was induced by the addition of 6 mM L-glutamate for 24 hours. Cell viability was assessed by measuring ATP levels using a luminescent-based CellTitre Glo assay (Promega). Compound neuroprotection (% cell survival) was expressed as a % of the effect recorded with 100 μM cysteamine (denoted as 100% cell survival).

[7] = Rodent pharmacokinetic assay (mouse); settings: 2 and 10 mg free base equivalents per kg, intravenous and oral gavage
Experimental: (§1) Pharmacokinetic parameters of a test compound in a rodent species (mouse and/or rat) were determined by administering a test compound at 2 and 10 mg free base equivalents per kg via the intravenous and oral gavage route to groups of three animals per route.
(§2) Blood samples were taken at various times after administration, plasma prepared, and submitted to analysis for parent drug using a qualified LC-MS-MS assay. Pharmacokinetics parameters derived from the plasma analytical data were determined using non-compartmental analysis.

[8] = test system: cryopreserved rat hepatocytes; experiment: Rat hepatocyte stability assay
Experimental: Rat hepatocytes were used to model in vivo hepatic clearance of the compounds by the ADO enzyme. Briefly, a Hepatocyte Stability Assay was carried out using cryopreserved rat hepatocytes.

[9] = Rodent pharmacokinetic assay (rat); format: in vivo; settings: 2 and 10 mg free base equivalents per kg, intravenous and oral gavage
Experimental: as §1, §2

[10] = Table 4, relative to cystine depletion by cysteamine (100%) at a similar concentration, read-out: Cystine Depletion (%)
[11] = Table 4, relative to 15 mM cysteamine
[12] = male, Sprague Dawley, rat, in vivo, po, 150 mg/kg, 1 h
[13] = male, Sprague Dawley, rat, in vivo, po, 150 mg/kg, 2 h
[14] = Table 4, relative to cystine depletion by cysteamine (100%) at a similar concentration

SCCN1CCCC1 [Compound 17518]
Cystine Reactivity Assay (RT) (RFU) Mean Value [1]: >9000 RFU | Emax [2, 10]: 99% | ADO Metabolism Assay (%) Mean Value [3, 11]: <25%

CN1CCC(S)CC1 [Compound 17521]
Cystine Reactivity Assay (RT) (RFU) Mean Value [1]: 4000-9000 RFU | Cystine Reactivity Assay (30° C.) (%) Mean Value ([4]; Table 4): 50-90% | Emax [2, 10]: 79% | ADO Metabolism Assay (%) Mean Value ([3]; human, 15 mM): <25%

SCCc1ccncc1 [Compound 17522]
Cystine Reactivity Assay (RT) (RFU) Mean Value [1]: <4000 RFU | Emax [2, 10]: 6% | ADO Metabolism Assay (%) Mean Value ([3]; human, 15 mM): <25%

CC(C)(S)CN [Compound 18782]
Cystine Reactivity Assay (RT) (RFU) Mean Value [1]: <4000 RFU | Mean DMS levels (nM) ± STD, Time 1 hr [5, 12]: <60 nM | Mean DMS levels (nM) ± STD, Time 2 hr [5, 13]: <60 nM | Emax [2, 10]: 32% | ADO Metabolism Assay (%) Mean Value ([3]; human, 15 mM): <25%

SC1CCNCC1 [Compound 41188]
Cystine Reactivity Assay (30° C.) (%) Mean Value ([4]; Table 4): 59-90% | viability at 10 µM [6]: 20 ± 6% | viability at 100 µM [6]: 105 ± 11% | Mean DMS levels (nM) ± STD, Time 1 hr [5, 12]: <60 nM | Mean DMS levels (nM) ± STD, Time 2 hr [5, 13]: <60 nM | Emax [2, 10]: 87% | ADO Metabolism Assay (%) Mean Value ([3]; human, 15 mM): <25%

SC1CNC1 [Compound 41446]
Cystine Reactivity Assay (30° C.) (%) Mean Value ([4]; Table 5): >90% | HdhQ^111/111 cell % survival (mean ± STD) Test Conc. 10 μM [6]: 6 ± 9% | HdhQ^111/111 cell % survival (mean ± STD) Test Conc. 100 μM [6]: 101 ± 11% | Mean DMS levels (nM) ± STD, Time 1 hr ([5]; rat, in vivo, po, 150 mg/kg): <60 nM | Mean DMS levels (nM) ± STD, Time 2 hr ([5]; rat, in vivo, po, 150 mg/kg): <60 nM | Cystine Depletion (%) [2, 14]: 82% | Cystine Depletion (%) Mean Value ([2]; Table 5, relative to cystine depletion by cysteamine (100%) at a similar concentration): 82%

CC1(S)CCNCC1 [Compound 42341]
Cystine Reactivity Assay (30° C.) (%) Mean Value ([4]; Table 4): <50% | Cystine Reactivity Assay (30° C.) (%) Mean Value ([4]; Table 5): <50% | viability at 10 µM [6]: 1 ± 10% | viability at 100 µM [6]: 55 ± 21% | Mean DMS levels (nM) ± STD, Time 0.5 hr ([5]; male, Sprague Dawley, rat, in vivo, po, 150 mg/kg, 0.5 h): <60 nM | Mean DMS levels (nM) ± STD, Time 1 hr [5, 12]: <60 nM | Mean DMS levels (nM) ± STD, Time 2 hr [5, 13]: <60 nM | Emax [2, 10]: 81% | Emax ([2]; Table 5, relative to cystine depletion by cysteamine (100%) at a similar concentration, read-out: Cystine Depletion (%) Mean Value): 83% | ADO Metabolism Assay (%) Mean Value ([3]; human, 15 mM): <25%

NCCS [Cysteamine]
Mouse PK Bioavailability [7]: 33% | Mouse PK-Half life [7]: 2.4 h | Cystine Reactivity Assay (RT) (RFU) Mean Value [1]: 4000-9000 RFU | Cystine Reactivity Assay (30° C.) (%) Mean Value ([4]; Table 4): >90% | Cystine Reactivity ([4]; Tables 1-3): 6543 | HdhQ^111/111 cell % survival (mean ± STD) Test Conc. 10 μM [6]: 20 ± 6% | HdhQ^111/111 cell % survival (mean ± STD) Test Conc. 100 μM [6]: 105 ± 13% | inhibition of glutamate-induced excitotoxicity / cell survival (in words) ([6]; St-HdhQ^111/111 cells): capable of inhibiting glutamate-induced excitotoxicity | Mean DMS levels (nM) ± STD, Time 0.5 hr ([5]; rat whole blood, 150 mg/kg po, 0.5 hr): 1097 ± 418 nM | Mean DMS levels (nM) ± STD, Time 1 hr ([5]; rat whole blood, 150 mg/kg po, 1 hr): 1162 ± 373 nM | Mean DMS levels (nM) ± STD, Time 2 hr ([5]; rat whole blood, 150 mg/kg po, 2 hr): 1437 ± 334 nM | Mean DMS levels (nM) ± STD, Time […] ([5]; rat whole blood, 150 mg/kg po, […]): 641 ± 324 nM | Rat Hepatocytes CLint [8]: 33700 µL/min/mg | Rat PK Bioavailability [9]: 62% | Rat PK-Half life [9]: 0.5 h | Cystine Depletion (%) [2, 14]: 100% | Cystine depletion ([2]; compound at 50 μM or 100 μM, Tables 1-3): 101% | Cystine depletion ( ) = disulfide efficacy ([2]; disulfide of the compound, 50 μM or 100 μM): (106%) | ADO Metabolism Assay (%) Mean Value [3, 11]: >75% | ADO metabolism ([3]; relative to 15 mM cysteamine, Tables 1-3): 111%
